Assay results: patent US7875607B2, “7,8-bicycloakyl-chroman derivatives” (Ampere Life Sciences, Inc., priority 2004, dated 2011)
One block for each molecule: values may come before it.

Assays:
[1] = system: ELAM (E-selectin) expression in endothelial cells; experiment: Cell-ELAM assay; type: cell-based; conditions: 10 μg/ml LPS and 100 pg/ml IL-1β, 6 hours
Excerpt: In vitro cell-based assays for inflammation are well known in the art, for example e-selectin (also named Endothelial Leukocyte Adhesion Molecule or ELAM) or C-reactive protein (CRP). The ELAM assay measures in vitro activity of the test compounds in reducing expression of ELAM in activated endothelial cells. Briefly, endothelial cells are […] by adding known activators such as lipopolysaccharides, TNF or IL-1, alone or in some combination. Activated cells produce ELAM, which can be measured using, for example, an E-selectin monoclonal antibody-based ELISA assay. Similarly the CRP assay measures in vitro activity of test compounds in reducing expression of CRP in Human Hep3B epithelial cells. The activated cells produce CRP, which can be measured with a CRP ELISA assay.
Endothelial-Leukocyte Adhesion Molecule (ELAM), also known as E-selectin, was expressed on the surface of endothelial cells. In this assay, lipopolysaccharide (LPS) and IL-1β were used to stimulate the expression of ELAM; test agents were tested for their abilities to reduce this expression, in accordance with studies showing that reduction of leukocyte adhesion to endothelial cell surface was associated with decreased cellular damage (e.g., Takada, M., Et al., Transplantation 64: 1520-25, 1997; Steinberg, J. B., et al., J. Heart Lung Trans. 13:306-313, 1994).
Endothelial cells may be selected from any of a number of sources and cultured according to methods known in the art; including, for example, coronary artery endothelial cells, human brain microvascular endothelial cells (HBMEC; Hess, D. C., et al., Neurosci. Lett. 213(1): 37-40, 1996), or lung endothelial cells. Cells were conveniently cultured in 96-well plates. Cells were stimulated by adding a solution to each well containing 10 μg/ml LPS and 100 pg/ml IL-1β for 6 hours in the presence of test agent (specific concentrations and time may be adjusted depending on the cell type) Treatment buffer was removed and replaced with pre-warmed Fixing Solution® (100 μl/well) for 25 minutes at room temperature. Cells were then washed 3×, then incubated with Blocking Buffer (PBS+2% FBS) for 25 minutes at room temperature. Blocking Buffer containing Monoclonal E-Selectin Antibody (1:750, Sigma Catalog # S-9555) was added to each well. Plates were sealed and stored at 4° overnight. Plates were washed 4× with 160 μL Blocking Buffer per well. Second Antibody-HRP diluted 1:5000 in Blocking Buffer was then added (100 μL/well), and plates were incubated at room temperature (protected from light) for two hours. Plates were then washed 4× with Blocking Buffer before addition of 100 μL of ABTS Substrate solution at room temperature (Zymed, Catalog # 00-2024). Wells were allowed to develop for 35 minutes, before measurement at 402 nm in a Fluoroskan® Reader with shake program for 10 seconds. Positive results were recorded as a decrease in ELAM concentration in tested wells, as compared to control wells.

[2] = system: dopaminergic neuronal cell line; experiment: High glutamate-induced oxidative stress assay (HGOS); type: cell-based; conditions: Mus musculus; 30 mM glutamate, 16 hrs; read-out: EC50, protection against HGOS cell injury and cell death
Excerpt: Protection against redox stress can be further evaluated in cell culture using high glutamate induced oxidative stress (HGOS) in mouse dopaminergic cell lines. The cytotoxic effect of glutamate is not due to excitotoxicity, as this cell line is devoid of inotropic glutamate receptors. Rather, the glutamate-induced toxicity of dopaminergic cells is associated with an inhibition of cystine transport which subsequently leads to depletion of intracellular glutathione (GSH) levels (Murphy T. H., et al. Neuron 2, 1547-1558, 1989), activation of neuronal 12-lipoxygenase (Li, Y. et al., Neuron 19, 453-463, 1997), increased ROS production (Tan S. et al., J. Cell Biol. 141, 1423-1432, 1998) and elevated intracellular Ca^2+ (Li, Y. et al., see supra). Some molecules were measured for their ability to protect cells against glutamate-induced stress and the assay is detailed in Examples.
This procedure was used to induce high glutamate-induced oxidative stress (HGOS) in a dopaminergic neuronal cell line. Using this assay the potency and efficacy of test articles against HGOS neuronal cell injury and cell death was established in a high throughput manner.
The cells were seeded into 96-well plates at a density of 2000 per well and left to grow for 72 hours in a 33° C. incubator with 5% CO2 in air atmosphere. The passage number of the cells for each assay experiment were no later than p11 in order to minimize experimental variation.
All compounds were dissolved in DMEM-No Glu containing 1 mM glucose, 30 mM glutamate and 1×Pen/Strep. DMEM-No Glu with 1 mM glucose and 1×P/S was used as the negative control, DMEM-No Glucose with 1 mM glucose, […] was used as a positive control and 100 μM Glutathione was added to the positive control as a standard. All of the procedures for this involving the making and dilution of compounds were performed using aseptic conditions and with minimal light.
The plates were removed from the incubator and examined under the microscope for morphological appearance and density. Using an aseptic technique and an 8-channel aspirator the media was carefully removed from the cells and replaced with 200 μl of 1×HBSS. This was done as quickly as possible to prevent the cells drying out. The plates were then placed in the humidified 37° C. incubators of the Biomek 2000 Side Loader. Four plates were washed at a time so as to minimize the time that the cells were sitting in 1×HBSS prior to addition of the compound test solution.
The Beckman Biomek workstations were used to load the compounds and controls from the mother plates onto the cell plates that were prewashed with HBSS under sterile conditions. The plates were incubated in the upper HTS incubator at 37° C. in 5% CO2 for exactly 16 hrs. The following day, using the Beckman Biomek workstations, the plates were removed from the incubator. Using Cell Tracker Addition, the compounds were removed from the plates, washed once with […] of pre-warmed 1×HBSS and then 100 μL of 5 μM Cell Tracker Green was added to each well. The plates were incubated at 37° C. for 30 min to allow the dye to enter the cell and be cleaved by the esterases. After washing the cells twice with prewarmed 1×HBSS, the plates were read with the 485 excitation; 538 emission filter pair on a Fluoroskan.

[3] = system: LTB4 production in heparinized whole blood; experiment: Inhibition of LTB4 production in blood; type: cell-based, rat or mouse; conditions: 20 μM A23187, read-out: EC50, protection against LTB4
Description: The blood was collected in heparinized tubes or syringes to prevent clotting. Heparin was at 20 USP U/ml. About 3-5 ml of blood was collected per rat and about 0.5-0.75 ml per mouse. This assay required 200 μl/data point, therefore a 96 well plate requires 20 ml.
The Calcium ionophore A23187 was prepared as a 10 mM stock solution in DMSO and the test agent is prepared in DMSO so that <1 μl DMSO will be added to the well
200 μl blood per well were added in a round bottom 96 well clear plastic 96 well plate followed by the test agent. After 10 minutes incubation at 37° C., 5 μl of Calcium ionophore A23187 for a final concentration of 20 μM were added and mixed, and further incubated for 30 min. After 1000×g centrifugation to pellet blood cells, 20 μl plasma was carefully removed.
20 μl plasma were added to 80 μl methanol to precipitate protein and mixed. This was further incubated 10 min. at room temperature and centrifuged at 1000×g to pellet protein.
Following manufacturer's instructions, the commercially available EIA kit was used to subsequently measure the LTB4 production in the samples. The LTB4 levels produced in the vehicle control sample were then compared to those in which the test compound had been added. From this a percent inhibition of LTB4 production by each concentration of test compound was calculated and the IC50 for inhibition of LTB4 production for each test compound was determined.

[4] = target: T1, human recombinant 5-lipoxygenase (Homo sapiens, UniProt P09917); experiment: 5-Lipoxygenase enzyme assay; type: biochemical; conditions: 70 μM arachidonic acid, pH 7.4
T1 construct: purchased Cayman 60402
T1 sequence (P09917 1-674): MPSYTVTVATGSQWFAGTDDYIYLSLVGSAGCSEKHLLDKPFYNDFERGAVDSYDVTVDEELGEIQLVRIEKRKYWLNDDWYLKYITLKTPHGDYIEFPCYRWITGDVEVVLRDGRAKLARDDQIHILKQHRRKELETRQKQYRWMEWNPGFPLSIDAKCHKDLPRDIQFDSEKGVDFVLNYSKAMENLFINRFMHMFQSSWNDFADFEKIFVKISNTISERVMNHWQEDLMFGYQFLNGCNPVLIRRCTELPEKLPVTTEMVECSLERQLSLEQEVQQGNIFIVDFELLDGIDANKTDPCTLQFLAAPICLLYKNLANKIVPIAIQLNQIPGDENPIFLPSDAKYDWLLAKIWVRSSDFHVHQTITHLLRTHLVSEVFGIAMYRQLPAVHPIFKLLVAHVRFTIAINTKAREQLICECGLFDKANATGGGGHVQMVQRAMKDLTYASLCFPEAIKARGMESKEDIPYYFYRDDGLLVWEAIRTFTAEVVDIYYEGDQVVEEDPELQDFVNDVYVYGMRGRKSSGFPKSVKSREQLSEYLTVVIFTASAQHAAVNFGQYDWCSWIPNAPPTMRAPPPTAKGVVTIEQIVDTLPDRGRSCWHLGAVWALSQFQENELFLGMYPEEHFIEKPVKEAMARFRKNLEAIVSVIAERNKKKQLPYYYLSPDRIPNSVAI
Description: This procedure was used for measuring the enzymatic activity of human recombinant 5-lipoxygenase using a […] method based on the ferric oxidation of xylenol orange.
Human recombinant 5-lipoxygenase (Cayman Cat # 60402) was used in this assay. The test compound and/or vehicle was added to 0.5U 5-lipoxygenase in 50 mM Tris-HCl buffer, pH 7.4. The reaction was initiated by addition of 70 μM arachidonic acid in Tris-HCl buffer, pH 7.4, and terminated after a 10 minute incubation at room temperature by addition of FOX reagent (25 mM sulphuric acid, 100 μM xylenol orange, 100 μM iron (II) sulphate, methanol:water 9:1). The yellow color of acidified xylenol orange was converted to a blue color by the lipid hydroperoxide-mediated oxidation of Fe^2+ ions and the interaction of the resulting Fe^3+ ions with the dye. The complex was allowed to form during a 1 hour incubation at room temperature with shaking. Absorbance of the Fe^3+ complex was then measured at […] using a spectrophotometer.
Negative controls contained enzyme during the incubation step but substrate was not added until after the FOX reagent.
Compounds were screened at 5 concentrations in triplicate starting at 10 μM

[5] = system: LTB4 release from MPRO cell line; experiment: LTB4-cell assay; type: cell-based; conditions: Mus musculus; differentiated MPRO cells, 1 μM A23187, 1 hour; read-out: EC50, inhibition of LTB4
Description: This procedure was used for measuring the release of the leukotriene LTB4 from a neutrophil cell line using a competitive ELISA technique.
A mouse promyelocytic cell line (MPRO) was used in this assay. These cells are committed immature neutrophils that can be differentiated into mature neutrophils by treatment with 10 μM all-trans retinoic acid for 72 hours
Following 72 hours of differentiation, cells were stimulated with 1 μM of a calcium ionophore (A23187) in the presence or absence of test compound or vehicle for 1 hour at 37° C. After this time, supernatant was removed from the cells and the LTB4 levels were determined following manufacturer's instructions, using a Leukotriene B4 EIA kit from Cayman (Cat # 520111)
The negative controls were media samples from differentiated but unstimulated cells.
The compounds were screened at 5 concentrations in quadruplicate starting at 10 μM

SMILES: CC1(C)CCc2c(Br)c(O)c3c(c2O1)C1CCC3C1 (stereo not shown) [5-Bromo-2,2-dimethyl-3,4,7,8,9,10-hexahydro-7,10-methano-2H-benzo[h]chromen-6-ol]
EC50 [1]: ≤ 30 µM
EC50 [2]: ≤ 1 µM

SMILES: CC1(C)CCc2c(Br)c(O)c3c(c2O1)C1CCC3CC1 [5-Bromo-2,2-dimethyl-3,4,7,8,9,10-hexahydro-7,10-ethano-2H-benzo[h]chromen-6-ol]
EC50 [3]: ≤ 10 µM
EC50 [2]: ≤ 1 µM
IC50 [4]: ≤ 5 µM

SMILES: CC1(CCCCl)CCc2cc(O)c3c(c2O1)C1CCC3CC1 (stereo not shown) [2-(3-Chloro-propyl)-2-methyl-3,4,7,8,9,10-hexahydro-7,10-ethano-2H-benzo[h]chromen-6-ol]
EC50 [3]: ≤ 10 µM
EC50 [2]: ≤ 1 µM
EC50 [5]: ≤ 5 µM

SMILES: CC1(C)CCc2cc(O)c3c(c2O1)C1C=CC3C1 (stereo not shown) [2,2-Dimethyl-3,4,7,10-tetrahydro-7,10-methano-2H-benzo[h]chromen-6-ol]
EC50 [3]: ≤ 10 µM
EC50 [2]: ≤ 1 µM
EC50 [5]: ≤ 5 µM
IC50 [4]: ≤ 5 µM

SMILES: CC(C)=CCc1c(O)c2c(c3c1CCC(C)(C)O3)C1C=CC2CC1 (stereo not shown) [2,2-Dimethyl-5-(3-methyl-but-2-enyl)-3,4,7,10-tetrahydro-7,10-ethano-2H-benzo[h]chromen-6-ol]
EC50 [1]: ≤ 30 µM
EC50 [2]: ≤ 1 µM
IC50 [4]: ≤ 5 µM

Further lines, with some results ahead:

EC50 [1]: ≤ 30 µM
SMILES: CC1(CCCl)CCc2cc(O)c3c(c2O1)C1CCC3C1 (stereo not shown) [2-(2-Chloro-ethyl)-2-methyl-3,4,7,8,9,10-hexahydro-7,10-methano-2H-benzo[h]chromen-6-ol]
EC50 [2]: ≤ 1 µM

EC50 [1]: ≤ 30 µM
SMILES: CC1(CCCSc2nc3ccccc3s2)CCc2cc(O)c3c(c2O1)C1CCC3C1 (stereo not shown) [2-[3-(Benzothiazol-2-ylsulfanyl)-propyl]-2-methyl-3,4,7,8,9,10-hexahydro-7,10-methano-2H-benzo[h]chromen-6-ol]
EC50 [2]: ≤ 1 µM
